Assay results as given in ChEMBL document CHEMBL4507299, “Data for DCP probe PF-04554878” (2021).

Key:
[1] = target: Adenosine receptor A3 (Homo sapiens, UniProt P0DMS8); test: Cerep profiling assay (ADORA3); parameters: compound concentration 10 uM
[2] = target: Vascular endothelial growth factor receptor 1 (Homo sapiens, UniProt P17948); test: Cerep profiling assay (FLT1); parameters: compound concentration 10 uM
[3] = target: Tyrosine-protein kinase BTK (Homo sapiens) (UniProt Q06187); test: BTK Invitrogen kinase activity assay; conditions: Compound concentration 1.0 uM
Sequence of Tyrosine-protein kinase BTK (Homo sapiens) (Q06187 whole entry): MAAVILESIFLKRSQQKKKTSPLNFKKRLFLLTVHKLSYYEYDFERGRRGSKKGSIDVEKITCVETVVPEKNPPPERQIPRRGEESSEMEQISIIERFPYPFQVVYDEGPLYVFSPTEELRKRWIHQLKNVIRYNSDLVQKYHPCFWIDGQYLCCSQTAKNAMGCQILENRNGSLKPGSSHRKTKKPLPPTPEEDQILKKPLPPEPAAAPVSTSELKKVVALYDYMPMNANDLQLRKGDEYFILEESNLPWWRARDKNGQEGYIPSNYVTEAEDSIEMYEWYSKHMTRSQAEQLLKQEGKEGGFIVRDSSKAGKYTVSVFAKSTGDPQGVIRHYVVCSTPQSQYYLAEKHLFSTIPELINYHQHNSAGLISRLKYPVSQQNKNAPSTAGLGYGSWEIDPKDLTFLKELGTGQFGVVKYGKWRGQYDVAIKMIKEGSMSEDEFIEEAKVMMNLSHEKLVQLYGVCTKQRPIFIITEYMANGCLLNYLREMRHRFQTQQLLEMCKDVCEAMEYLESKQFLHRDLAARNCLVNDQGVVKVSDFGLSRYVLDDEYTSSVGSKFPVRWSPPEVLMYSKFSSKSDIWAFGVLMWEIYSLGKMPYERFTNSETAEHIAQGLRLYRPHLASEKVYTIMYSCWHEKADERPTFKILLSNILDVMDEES

[4] = target: CDK6/cyclin D3 (Homo sapiens) (UniProt P30281+Q00534); test: CDK6/cyclinD3 Invitrogen kinase activity assay; type: protein-complex assay; conditions: Compound concentration 1.0 uM
[5] = target: T1, Serine/threonine-protein kinase Chk1 (Homo sapiens) (UniProt O14757); test: CHK1 Invitrogen kinase activity assay; conditions: Compound concentration 1.0 uM
T1 sequence (whole entry): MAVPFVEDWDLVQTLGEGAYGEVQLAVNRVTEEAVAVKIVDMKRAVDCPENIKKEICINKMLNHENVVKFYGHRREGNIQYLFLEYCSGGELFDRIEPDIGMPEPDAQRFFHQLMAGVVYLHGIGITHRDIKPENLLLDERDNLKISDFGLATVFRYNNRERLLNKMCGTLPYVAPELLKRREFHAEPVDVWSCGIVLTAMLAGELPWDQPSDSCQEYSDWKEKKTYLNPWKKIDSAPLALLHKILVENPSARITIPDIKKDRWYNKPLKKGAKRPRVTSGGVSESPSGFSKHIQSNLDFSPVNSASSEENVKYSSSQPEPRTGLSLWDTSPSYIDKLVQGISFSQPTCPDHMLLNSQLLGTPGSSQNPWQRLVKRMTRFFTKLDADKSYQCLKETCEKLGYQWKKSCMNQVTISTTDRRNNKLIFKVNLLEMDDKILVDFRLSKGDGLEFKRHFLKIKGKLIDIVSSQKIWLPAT

[6] = target: Casein kinase I isoform delta (Homo sapiens) (UniProt P48730); test: CKLdelta Invitrogen kinase activity assay; conditions: Compound concentration 1.0 uM
[7] = target: Fibroblast growth factor receptor 1 (Homo sapiens) (UniProt P11362); test: FGFR1 Invitrogen kinase activity assay; conditions: Compound concentration 1.0 uM
[8] = target: Insulin receptor (Homo sapiens) (UniProt P06213); test: INSR Invitrogen kinase activity assay; conditions: Compound concentration 1.0 uM
[9] = target: Tyrosine-protein kinase Lck (Homo sapiens) (UniProt P06239); test: LCK Invitrogen kinase activity assay; conditions: Compound concentration 1.0 uM
[10] = target: Serine/threonine-protein kinase MARK1 (Homo sapiens, UniProt Q9P0L2); test: MARK1 Invitrogen kinase activity assay
[11] = target: Hepatocyte growth factor receptor (Homo sapiens) (UniProt P08581); test: MET Invitrogen kinase activity assay; conditions: Compound concentration 1.0 uM
Sequence of Hepatocyte growth factor receptor (Homo sapiens) (P08581 whole entry): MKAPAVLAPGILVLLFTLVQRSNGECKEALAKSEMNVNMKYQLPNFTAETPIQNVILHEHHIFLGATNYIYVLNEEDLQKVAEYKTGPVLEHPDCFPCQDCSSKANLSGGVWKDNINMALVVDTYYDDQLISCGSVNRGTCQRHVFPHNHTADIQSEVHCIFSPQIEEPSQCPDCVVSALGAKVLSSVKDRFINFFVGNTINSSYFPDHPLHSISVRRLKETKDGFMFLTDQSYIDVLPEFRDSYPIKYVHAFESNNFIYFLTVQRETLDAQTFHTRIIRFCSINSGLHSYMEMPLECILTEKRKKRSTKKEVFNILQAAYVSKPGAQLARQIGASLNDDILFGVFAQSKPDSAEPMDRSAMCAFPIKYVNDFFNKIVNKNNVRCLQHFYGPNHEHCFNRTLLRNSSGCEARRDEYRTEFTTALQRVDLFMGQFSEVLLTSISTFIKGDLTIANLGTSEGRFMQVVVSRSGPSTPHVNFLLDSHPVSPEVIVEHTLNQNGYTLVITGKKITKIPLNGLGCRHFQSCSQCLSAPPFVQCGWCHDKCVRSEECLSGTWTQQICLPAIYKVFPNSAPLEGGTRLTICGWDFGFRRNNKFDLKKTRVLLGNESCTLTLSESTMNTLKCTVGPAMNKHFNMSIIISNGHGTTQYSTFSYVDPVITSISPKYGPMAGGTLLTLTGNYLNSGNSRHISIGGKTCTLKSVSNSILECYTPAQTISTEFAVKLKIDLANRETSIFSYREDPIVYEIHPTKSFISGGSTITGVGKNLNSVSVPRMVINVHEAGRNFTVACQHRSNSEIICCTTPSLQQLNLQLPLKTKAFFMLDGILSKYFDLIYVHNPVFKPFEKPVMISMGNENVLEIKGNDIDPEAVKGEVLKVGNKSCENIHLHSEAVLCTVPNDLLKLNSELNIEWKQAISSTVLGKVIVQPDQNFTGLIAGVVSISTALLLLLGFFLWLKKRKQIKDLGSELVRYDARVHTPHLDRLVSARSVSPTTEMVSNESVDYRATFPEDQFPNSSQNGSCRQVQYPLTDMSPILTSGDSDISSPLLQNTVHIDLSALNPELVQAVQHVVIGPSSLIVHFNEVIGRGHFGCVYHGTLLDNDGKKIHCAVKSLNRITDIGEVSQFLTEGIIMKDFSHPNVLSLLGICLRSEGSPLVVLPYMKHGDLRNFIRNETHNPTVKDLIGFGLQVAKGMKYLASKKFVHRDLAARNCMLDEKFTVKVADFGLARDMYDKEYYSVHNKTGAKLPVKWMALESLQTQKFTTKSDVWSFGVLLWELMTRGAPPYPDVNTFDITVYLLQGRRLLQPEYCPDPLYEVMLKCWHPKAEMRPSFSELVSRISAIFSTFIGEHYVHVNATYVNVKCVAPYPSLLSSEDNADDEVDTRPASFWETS

[12] = target: Serine/threonine-protein kinase pim-2 (Homo sapiens) (UniProt Q9P1W9); test: PIM2 Invitrogen kinase activity assay; conditions: Compound concentration 1.0 uM
Sequence of Serine/threonine-protein kinase pim-2 (Homo sapiens) (Q9P1W9 whole entry, looked up): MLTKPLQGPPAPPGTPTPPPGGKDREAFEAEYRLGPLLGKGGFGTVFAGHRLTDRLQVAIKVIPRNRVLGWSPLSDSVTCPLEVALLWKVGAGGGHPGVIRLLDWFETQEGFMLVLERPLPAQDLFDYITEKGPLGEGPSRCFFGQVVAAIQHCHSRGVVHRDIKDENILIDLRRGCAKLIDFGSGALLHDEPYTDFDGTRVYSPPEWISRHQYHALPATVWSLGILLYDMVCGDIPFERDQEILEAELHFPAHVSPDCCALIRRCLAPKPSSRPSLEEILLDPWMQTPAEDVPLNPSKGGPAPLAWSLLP

[13] = target: cAMP-dependent protein kinase catalytic subunit alpha (Homo sapiens) (UniProt P17612); test: PKACa Invitrogen kinase activity assay; conditions: Compound concentration 1.0 uM
[14] = target: Protein kinase C zeta type (Homo sapiens) (UniProt Q05513); test: PKCzeta Invitrogen kinase activity assay; conditions: Compound concentration 1.0 uM
[15] = target: Rho-associated protein kinase 1 (Homo sapiens) (UniProt Q13464); test: ROCK1 Invitrogen kinase activity assay; conditions: Compound concentration 1.0 uM
[16] = target: Mitogen-activated protein kinase 14 (Homo sapiens) (UniProt Q16539); test: SAPK2A/p38 Invitrogen kinase activity assay; conditions: Compound concentration 1.0 uM
Sequence of Mitogen-activated protein kinase 14 (Homo sapiens) (Q16539 whole entry): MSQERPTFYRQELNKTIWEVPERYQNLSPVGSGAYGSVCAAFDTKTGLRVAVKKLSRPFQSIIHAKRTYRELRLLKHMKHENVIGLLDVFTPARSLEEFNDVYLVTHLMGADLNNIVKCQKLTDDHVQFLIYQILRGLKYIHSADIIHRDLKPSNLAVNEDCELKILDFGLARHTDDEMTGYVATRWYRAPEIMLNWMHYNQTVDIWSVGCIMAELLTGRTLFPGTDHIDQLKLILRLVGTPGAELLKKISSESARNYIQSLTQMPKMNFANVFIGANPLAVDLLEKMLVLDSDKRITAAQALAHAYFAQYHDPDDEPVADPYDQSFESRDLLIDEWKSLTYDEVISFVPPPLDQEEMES

[17] = target: T2, Serine/threonine-protein kinase Sgk1 (Homo sapiens) (UniProt O00141); test: SGK Invitrogen kinase activity assay; conditions: Compound concentration 1.0 uM
T2 sequence (whole entry): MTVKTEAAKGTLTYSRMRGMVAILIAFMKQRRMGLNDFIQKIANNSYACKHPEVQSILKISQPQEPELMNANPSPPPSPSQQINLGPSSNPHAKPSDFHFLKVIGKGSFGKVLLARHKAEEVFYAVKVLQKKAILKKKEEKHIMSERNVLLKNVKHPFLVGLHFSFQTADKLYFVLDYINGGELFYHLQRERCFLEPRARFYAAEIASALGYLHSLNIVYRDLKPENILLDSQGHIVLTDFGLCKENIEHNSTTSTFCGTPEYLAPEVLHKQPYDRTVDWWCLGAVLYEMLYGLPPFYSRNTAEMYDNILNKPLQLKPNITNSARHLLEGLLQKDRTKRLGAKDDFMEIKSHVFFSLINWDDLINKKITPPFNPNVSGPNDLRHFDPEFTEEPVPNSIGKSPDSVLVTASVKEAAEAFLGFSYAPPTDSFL

[18] = target: T3, Serine/threonine-protein kinase TAO3 (Homo sapiens) (UniProt Q9H2K8); test: TAOK3 Invitrogen kinase activity assay; conditions: Compound concentration 1.0 uM
T3 sequence (whole entry): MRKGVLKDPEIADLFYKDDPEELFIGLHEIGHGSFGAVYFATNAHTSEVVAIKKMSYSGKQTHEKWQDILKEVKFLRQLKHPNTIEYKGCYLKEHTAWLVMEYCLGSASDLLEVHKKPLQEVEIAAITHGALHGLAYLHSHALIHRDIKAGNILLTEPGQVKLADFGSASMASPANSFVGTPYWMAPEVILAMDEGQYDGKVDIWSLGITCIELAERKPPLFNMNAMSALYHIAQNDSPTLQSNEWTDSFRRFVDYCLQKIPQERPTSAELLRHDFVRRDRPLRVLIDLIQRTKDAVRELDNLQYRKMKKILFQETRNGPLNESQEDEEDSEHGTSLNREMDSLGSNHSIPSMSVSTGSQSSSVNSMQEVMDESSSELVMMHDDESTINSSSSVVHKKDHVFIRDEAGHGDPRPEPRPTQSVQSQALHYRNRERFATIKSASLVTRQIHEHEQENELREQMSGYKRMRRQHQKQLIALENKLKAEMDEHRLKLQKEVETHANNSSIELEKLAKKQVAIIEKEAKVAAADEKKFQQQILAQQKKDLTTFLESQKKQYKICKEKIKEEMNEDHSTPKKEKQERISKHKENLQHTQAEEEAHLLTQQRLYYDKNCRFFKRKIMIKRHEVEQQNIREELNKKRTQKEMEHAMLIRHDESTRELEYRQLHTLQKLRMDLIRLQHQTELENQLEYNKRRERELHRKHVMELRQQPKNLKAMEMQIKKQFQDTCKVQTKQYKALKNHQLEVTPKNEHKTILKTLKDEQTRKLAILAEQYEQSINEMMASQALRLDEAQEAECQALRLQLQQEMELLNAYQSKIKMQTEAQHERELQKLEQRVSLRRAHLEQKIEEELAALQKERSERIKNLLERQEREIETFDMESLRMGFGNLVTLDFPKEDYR

[19] = target: 5-hydroxytryptamine receptor 1A (Homo sapiens) (UniProt P08908); conditions: Compound concentration 10.0 uM
[20] = target: D(3) dopamine receptor (Homo sapiens) (UniProt P35462); conditions: Compound concentration 10.0 uM
Sequence of D(3) dopamine receptor (Homo sapiens) (P35462 whole entry): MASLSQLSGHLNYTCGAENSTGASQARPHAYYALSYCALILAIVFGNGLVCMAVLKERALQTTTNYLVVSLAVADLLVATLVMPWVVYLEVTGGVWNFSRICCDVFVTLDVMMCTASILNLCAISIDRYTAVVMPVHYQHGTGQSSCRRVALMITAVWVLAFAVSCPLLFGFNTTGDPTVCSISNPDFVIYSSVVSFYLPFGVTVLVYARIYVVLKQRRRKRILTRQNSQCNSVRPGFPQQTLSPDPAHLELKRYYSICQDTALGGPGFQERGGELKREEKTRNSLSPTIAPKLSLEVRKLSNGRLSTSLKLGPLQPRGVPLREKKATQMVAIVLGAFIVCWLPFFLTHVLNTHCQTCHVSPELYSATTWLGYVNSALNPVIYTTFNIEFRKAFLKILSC

[21] = target: GABA-A receptor; anion channel (Rattus norvegicus) (UniProt O09028+P15431+P18506+P18508+P19969+P20236+P23574+P23576+P28471+P28473+P30191+P62813+P63079+P63138+Q91ZM7+Q9ES14); conditions: Compound concentration 10.0 uM
[22] = target: Muscarinic acetylcholine receptor M4 (Homo sapiens) (UniProt P08173); conditions: Compound concentration 10.0 uM

Sequence of Vascular endothelial growth factor receptor 1 (P17948 whole entry): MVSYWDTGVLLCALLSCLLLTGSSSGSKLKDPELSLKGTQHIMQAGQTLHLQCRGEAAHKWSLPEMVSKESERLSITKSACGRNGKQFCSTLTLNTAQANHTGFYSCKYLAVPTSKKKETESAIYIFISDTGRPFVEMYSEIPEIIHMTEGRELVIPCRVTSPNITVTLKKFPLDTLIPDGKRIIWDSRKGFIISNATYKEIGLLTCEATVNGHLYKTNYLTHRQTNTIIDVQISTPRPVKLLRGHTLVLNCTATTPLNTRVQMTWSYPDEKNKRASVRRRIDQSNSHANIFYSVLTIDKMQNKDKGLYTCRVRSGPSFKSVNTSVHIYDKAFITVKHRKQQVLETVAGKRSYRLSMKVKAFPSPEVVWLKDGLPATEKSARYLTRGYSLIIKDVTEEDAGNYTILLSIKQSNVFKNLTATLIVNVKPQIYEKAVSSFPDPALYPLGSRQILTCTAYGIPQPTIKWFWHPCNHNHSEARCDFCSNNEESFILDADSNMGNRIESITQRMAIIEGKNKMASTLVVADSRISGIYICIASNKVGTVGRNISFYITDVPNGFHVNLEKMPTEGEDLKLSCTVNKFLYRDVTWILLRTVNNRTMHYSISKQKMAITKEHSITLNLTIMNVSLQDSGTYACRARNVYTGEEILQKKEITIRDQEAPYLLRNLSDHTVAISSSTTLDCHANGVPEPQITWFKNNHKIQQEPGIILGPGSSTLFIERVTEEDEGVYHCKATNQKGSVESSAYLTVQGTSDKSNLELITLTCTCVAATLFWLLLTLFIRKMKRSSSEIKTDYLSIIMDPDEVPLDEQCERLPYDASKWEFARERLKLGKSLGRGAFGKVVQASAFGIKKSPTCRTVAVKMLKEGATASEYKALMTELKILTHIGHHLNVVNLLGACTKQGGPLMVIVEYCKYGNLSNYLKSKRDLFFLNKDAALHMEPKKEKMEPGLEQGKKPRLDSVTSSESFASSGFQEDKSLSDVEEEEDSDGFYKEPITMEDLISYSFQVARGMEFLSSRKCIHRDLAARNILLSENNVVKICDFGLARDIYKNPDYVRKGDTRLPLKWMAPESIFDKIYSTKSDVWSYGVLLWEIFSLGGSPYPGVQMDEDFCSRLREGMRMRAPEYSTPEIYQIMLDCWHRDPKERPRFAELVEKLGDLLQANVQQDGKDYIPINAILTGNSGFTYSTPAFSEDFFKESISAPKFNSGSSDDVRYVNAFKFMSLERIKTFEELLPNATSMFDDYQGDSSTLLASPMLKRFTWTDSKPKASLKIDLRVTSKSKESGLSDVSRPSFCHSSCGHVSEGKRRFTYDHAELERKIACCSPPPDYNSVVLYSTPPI
Sequence of Adenosine receptor A3 (P0DMS8 whole entry): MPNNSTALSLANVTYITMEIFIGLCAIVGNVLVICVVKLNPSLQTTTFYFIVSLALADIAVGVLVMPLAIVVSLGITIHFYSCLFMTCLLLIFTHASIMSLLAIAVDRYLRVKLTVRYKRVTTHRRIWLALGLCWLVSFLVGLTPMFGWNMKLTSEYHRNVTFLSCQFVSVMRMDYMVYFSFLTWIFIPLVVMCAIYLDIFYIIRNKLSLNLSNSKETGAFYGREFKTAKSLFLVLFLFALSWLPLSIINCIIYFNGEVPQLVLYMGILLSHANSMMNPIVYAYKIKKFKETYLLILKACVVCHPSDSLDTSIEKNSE

CNC(=O)c1ccc(Nc2ncc(C(F)(F)F)c(NCc3nccnc3N(C)S(C)(=O)=O)n2)cc1 [DEFACTINIB]
Ki [1]: 27 nM | IC50 [2]: 2500 nM (not active) | inhibition [3]: 14% | inhibition [4]: 13% | inhibition [5]: 23% | inhibition [6]: 27% | inhibition [7]: 64% | inhibition [8]: 50% | inhibition [9]: 39% | IC50 [10]: 448 nM | inhibition ([10]; Compound concentration 1.0 uM): 81% | inhibition [11]: 54% | inhibition [12]: 0% | inhibition [13]: 29% | inhibition [14]: 10% | inhibition [15]: 20% | inhibition [16]: 1% | inhibition [17]: 30% | inhibition [18]: 66% | inhibition [19]: -9.76% | inhibition [20]: 11.3%

CN(c1ccnc(CNc2nc(Nc3ccc4c(c3)CC(=O)N4)ncc2C(F)(F)F)n1)S(C)(=O)=O [PF-00911705]
inhibition [21]: 10.3% | inhibition [22]: 8.94%
